# Laboratory results taken from publication PMC5730575, “A Simple Platform for the Rapid Development of Antimicrobials” (Scientific Reports, 2017).
# Tests used:
# A/CA/07/2009 pdm09 H1N1 = assay: 100-peptide microarray binding of pdm09 H1N1; design: species or system influenza A/CA/07/2009 pdm09 H1N1; conditions: two color fluorescent labeling (AF555/AF647); six replicate spots per peptide; versus background in empty spots, p < 0.01
# [1] = system: A/CA/7/2009 H1N1 pdm09 hemagglutination of turkey red blood cells; assay: Hemagglutination inhibition (HAI) assay; assay type: biochemical, influenza A/CA/07/2009 pdm09 H1N1; conditions: peptides tested 50 µM to 1.76 µM, 2 fold dilutions; 1 HAU virus; 0.5% turkey RBC; non-inhibitors: even at 50 µM
# S. epidermidis = assay: 100-peptide microarray binding of S. epidermidis; conditions: S. epidermidis labeled with CTO and AF647, 106 CFU/mL
# [2] = cited from earlier work
Substance,binding of pdm09 H1N1 on the peptide array (A/CA/07/2009 pdm09 H1N1),inhibition of hemagglutination by pdm09 of red blood cells (peptides) [1],binding of S. epidermidis on the peptide array (S. epidermidis),elimination half-life [2]
CSGFWPRKHPFRWKHPRPKH [p107],bound,did not prevent hemagglutination,,
CSGAMHGPATTRPAIGRYPW [p52],,,positives binders,
CSGEWRQQKMMPKSAPNKPQ [p94],did not,,,
enfuvirtide,,,,3.8 h
CSGSFNQEYFPYPMIDYLKK [p227],,inhibited hemagglutination,,
CSGYNWSRKKHKYYPRKIAY [p43],bound,did not prevent hemagglutination,,
CSGNETAPDNTYRYKQSAQK [p174],bound,did not prevent hemagglutination,,
CSGKVHRWKYHSRQNYTYRP [p151],bound,did not prevent hemagglutination,,
CSGAVNYQEVFNKARMKKKR [p58],bound,did not prevent hemagglutination,,
CSGFRKHPWKHPRHKFHKPW [p104],,,positives binders,
CSGHNIYAQYGYPYDHMYEG [p125],,inhibited hemagglutination,,
CSGYYDVHMGPMNDNHYFKK [p228],bound,did not prevent hemagglutination,,
CSGQFSAKKYWEIKPMDYWK [p204],bound,did not prevent hemagglutination,,
CSGKSQEIGDPDDIWNQMKW [p149],,inhibited hemagglutination,,
